Measurements published in patent US12502440B2, “Cross-linking compounds and methods of use thereof” (North Carolina State University, priority 2019, dated 2025).
“And” between values parts separate entries of the source, which are not always exact repeats. Equal entries are not always repeated.

Tests used:
Assay type in all cases: biochemical
[1] = system: β-glucosidase from almonds; assay: Indigogenic reaction with β-glucosidase from almonds
[2] = target: T1, β-glucosidase from Agrobacterium (Agrobacterium sp., UniProt P12614); assay: Indigogenic reaction with β-glucosidase from Agrobacterium
T1 construct: purchased Megazyme
T1 sequence (P12614 1-459): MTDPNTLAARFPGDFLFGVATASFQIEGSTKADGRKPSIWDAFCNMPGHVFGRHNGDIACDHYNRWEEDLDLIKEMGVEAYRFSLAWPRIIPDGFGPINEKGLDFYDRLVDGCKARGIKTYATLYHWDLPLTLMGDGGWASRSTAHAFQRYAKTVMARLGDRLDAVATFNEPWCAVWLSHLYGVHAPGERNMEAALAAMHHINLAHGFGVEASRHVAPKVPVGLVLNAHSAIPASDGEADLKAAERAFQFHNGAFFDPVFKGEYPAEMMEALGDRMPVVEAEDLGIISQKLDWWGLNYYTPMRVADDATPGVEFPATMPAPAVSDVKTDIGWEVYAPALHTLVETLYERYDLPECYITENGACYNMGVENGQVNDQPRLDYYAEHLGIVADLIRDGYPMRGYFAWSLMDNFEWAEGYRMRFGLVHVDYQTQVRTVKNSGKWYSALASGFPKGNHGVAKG
Procedure: Next, the β-glucosidase from Agrobacterium sp. was investigated as the trigger enzyme for indigoid dye formation. […] The reaction was carried out using the enzyme (200 nM) and indoxyl-glucoside 33 (100 μM) in phosphate buffer (pH 4-9, containing 2% DMF) at 37° C. […] Note that with 200 nM enzyme and 100 μM substrate, complete reaction requires 500 turnovers of each enzyme.
Reactions with β-glucosidase from Agrobacterium. An indoxyl compound in DMF (2 μL, 5 mM) and β-glucosidase from Agrobacterium in 10 mM phosphate buffer [2 μL, 10 μM, pH 7.0, containing 50 mM NaCl and 0.6 M (NH4)2SO4] were mixed with 50 mM phosphate buffer (96 μL, pH 7.0). The reaction mixture was incubated at 37° C. for 2 h and then centrifuged for 3 min. Any precipitate was separated from the supernatant and dissolved in DMF (200 μL). The resulting solution was analyzed by absorption spectroscopy. The experiment was repeated three times.

rat liver homogenate = assay: Indigoid-dye formation in rat liver homogenate; settings: indoxyl 1 mM in rat liver homogenate, 5% DMF, 37° C., 24 h; ε = 1.27 × 10^4 M^−1 cm^−1 measured for 4
Procedure: Finally, indigoid-dye formation was carried out in rat liver homogenate (Table 1, rightmost column).
Reactions in rat liver homogenate. An indoxyl compound in DMF (5 μL, 20 mM) was mixed with rat liver homogenate (95 μL). The reaction mixture was incubated at 37° C. for 24 h. After allowing to cool to room temperature, the reaction mixture was diluted with DMF (900 μL). The mixture was heated at 70° C. for 2 min and then centrifuged for 2 min. The supernatant was separated from any precipitate. This extraction procedure was repeated two or three times with DMF (100-500 μL). The combined supernatant (1500-1800 μL) was analyzed by absorption spectroscopy.

[3] = indoxyl 1 mM, enzyme 1 unit/mL, 0.01M acetate buffer pH 5, 5% DMF, 37° C., 16-19 h, ε = 1.27 × 10^4 M^−1 cm^−1 measured for 4
[4] = indoxyl 100 μM, enzyme 200 nM, 0.05M phosphate buffer pH 7.0, 2% DMF, 37° C., 2 h, three repeats, ε = 1.27 × 10^4 M^−1 cm^−1 measured for 4
[5] = as E1 but ε measured for 43 (footnote g)
[6] = as E4 but ε measured for 43 (footnote g)

COc1nc(Oc2ccc3[nH]cc(O[C@@H]4O[C@H](CO)[C@@H](O)[C@H](O)[C@H]4O)c3c2)nc(N2CCOCC2)n1 [compound 19, 5-[(4-Methoxy-6-morpholino-1,3,5-triazin-2-yl)oxy]-1H-indole-3-yl β-D-glucopyranoside]
Yield (%) of indigoid dye, β-glucosidase from almonds [1, 3]: <1% | Yield (%) of indigoid dye, β-glucosidase from Agrobacterium [2, 4]: 46 + 5% | Yield (%) of indigoid dye, rat liver homogenate (rat liver homogenate): <5%

C#CCOc1c(Br)cc2[nH]cc(O[C@@H]3O[C@H](CO)[C@@H](O)[C@H](O)[C@H]3O)c2c1Br [compound 27, 4,6-Dibromo-5-propargyloxy-1H-indol-3-yl β-D-glucopyranoside]
Yield (%) of indigoid dye, β-glucosidase from almonds [1, 5]: 51% | Yield (%) of indigoid dye, β-glucosidase from almonds [1, 3]: 105% | Yield (%) of indigoid dye, β-glucosidase from Agrobacterium [2, 6]: 89 ± 2% | Yield (%) of indigoid dye, β-glucosidase from Agrobacterium [2, 4]: 184 ± 3% | Yield (%) of indigoid dye, rat liver homogenate (rat liver homogenate): 50%

5-[(Benzylcarbamoyl)oxy)]-1H-indole-3-yl β-D-glucopyranoside [compound 16]
Yield (%) of indigoid dye, β-glucosidase from almonds [1, 3]: 24% | Yield (%) of indigoid dye, rat liver homogenate (rat liver homogenate): 9%

COC(=O)COc1ccc2[nH]cc(O[C@@H]3O[C@H](CO)[C@@H](O)[C@H](O)[C@H]3O)c2c1Br [compound 23, 4-Bromo-5-(methoxycarbonyl)methoxy-1H-indol-3-yl β-D-glucopyranoside]
Yield (%) of indigoid dye, β-glucosidase from almonds [1, 3]: 68% | Yield (%) of indigoid dye, β-glucosidase from Agrobacterium [2, 4]: 84 ± 4% | Yield (%) of indigoid dye, rat liver homogenate (rat liver homogenate): <5%

C#CCOc1ccc2[nH]cc(O[C@@H]3O[C@H](CO)[C@@H](O)[C@H](O)[C@H]3O)c2c1Br [compound 26, 4-Bromo-5-propargyloxy-1H-indol-3-yl β-D-glucopyranoside]
Yield (%) of indigoid dye, β-glucosidase from almonds [1, 3]: 56% | Yield (%) of indigoid dye, β-glucosidase from Agrobacterium [2, 4]: 79 ± 1% | Yield (%) of indigoid dye, rat liver homogenate (rat liver homogenate): 17%

COc1nc(Oc2ccc3[nH]cc(O[C@@H]4O[C@H](CO)[C@@H](O)[C@H](O)[C@H]4O)c3c2Br)nc(N2CCOCC2)n1 [compound 20, 4-Bromo-5-[(4-methoxy-6-morpholino-1,3,5-triazin-2-yl)oxy]-1H-indole-3-yl β-D-glucopyranoside]
Yield (%) of indigoid dye, β-glucosidase from Agrobacterium [2, 4]: 150 ± 3% | Yield (%) of indigoid dye, rat liver homogenate (rat liver homogenate): <5%

C#CCOc1ccc2[nH]cc(O[C@@H]3O[C@H](CO)[C@@H](O)[C@H](O)[C@H]3O)c2c1 [compound 25, 5-Propargyloxy-1H-indol-3-yl β-D-glucopyranoside]
Yield (%) of indigoid dye, β-glucosidase from almonds [1, 3]: <5% | Yield (%) of indigoid dye, β-glucosidase from Agrobacterium [2, 4]: 37 ± 2% | Yield (%) of indigoid dye, rat liver homogenate (rat liver homogenate): 11%

5-bromo-4-chloroindoxyl β-glucoside [compound 42, reference compound]
Yield (%) of indigoid dye, β-glucosidase from almonds ([1]; as E1 but ε = 2.00 × 10^4 M^−1 cm^−1 reported for 5,5′-dibromo-4,4′-dichloroindigo (footnote e)): 74% and 74^e % | Yield (%) of indigoid dye, β-glucosidase from Agrobacterium ([2]; as E4 but ε = 2.00 × 10^4 M^−1 cm^−1 reported for 5,5′-dibromo-4,4′-dichloroindigo (footnote e)): 116% and 116 ± 8^e % | Yield (%) of indigoid dye, rat liver homogenate (rat liver homogenate): 65%

COc1nc(Oc2c(Br)cc3[nH]cc(O[C@@H]4O[C@H](CO)[C@@H](O)[C@H](O)[C@H]4O)c3c2Br)nc(N2CCOCC2)n1 [compound 21, 4,6-Dibromo-5-[(4-methoxy-6-morpholino-1,3,5-triazin-2-yl)oxy]-1H-indole-3-yl β-D-glucopyranoside]
Yield (%) of indigoid dye, β-glucosidase from Agrobacterium [2, 6]: 31 ± 2% | Yield (%) of indigoid dye, β-glucosidase from Agrobacterium [2, 4]: 63 ± 4% | Yield (%) of indigoid dye, rat liver homogenate (rat liver homogenate): <5%

OC[C@H]1O[C@@H](Oc2c[nH]c3cc(Br)c(OC[C@@H]4[C@@H]5CCC#CCC[C@@H]54)c(Br)c23)[C@H](O)[C@@H](O)[C@@H]1O [compound 30, 5-{[(1R,8S,9s)-Bicyclo[6.1.0]non-4-yn-9-yl]methoxy}-4,6-dibromo-1H-indole-3-yl β-D-glucopyranoside]
Yield (%) of indigoid dye, β-glucosidase from Agrobacterium [2, 6]: 10% and 10 ± 0.4% | Yield (%) of indigoid dye, β-glucosidase from Agrobacterium [2, 4]: 21 ± 1%

COC(=O)COc1c(Br)cc2[nH]cc(O[C@@H]3O[C@H](CO)[C@@H](O)[C@H](O)[C@H]3O)c2c1Br [compound 24, 4,6-Dibromo-5-(methoxycarbonyl)methoxy-1H-indol-3-yl β-D-glucopyranoside]
Yield (%) of indigoid dye, β-glucosidase from almonds [1, 5]: 59% | Yield (%) of indigoid dye, β-glucosidase from almonds [1, 3]: 122% | Yield (%) of indigoid dye, β-glucosidase from Agrobacterium [2, 6]: 102 + 3% | Yield (%) of indigoid dye, β-glucosidase from Agrobacterium [2, 4]: 209 ± 6% | Yield (%) of indigoid dye, rat liver homogenate (rat liver homogenate): <5%

COC(=O)COc1ccc2[nH]cc(OC3O[C@H](CO)[C@@H](O)[C@H](O)[C@H]3O)c2c1 (stereo partly drawn) [compound 22, 5-(Methoxycarbonyl)methoxy-1H-indol-3-yl-D-glucopyranoside]
Yield (%) of indigoid dye, β-glucosidase from almonds [1, 3]: <1% | Yield (%) of indigoid dye, β-glucosidase from Agrobacterium [2, 4]: 30 ± 6% | Yield (%) of indigoid dye, rat liver homogenate (rat liver homogenate): <5%
